Test results from patent US8906829B2, “Synergistic algicidal compositions including hydrazone derivatives and copper” (Dow AgroSciences LLC, priority 2010, dated 2014).

Assays:
[1] = tested on: Synechocystis sp. strain 6803; assay: Growth inhibition of Synechocystis by hydrazones and isolated metal-hydrazone complexes, BG-11 Cu minus medium (Example 12); assay type: cell-based; details: Synechocystis, Test Concn. 0.05 μg/ml, read-out: Hydrazone % Inhn.
Description: In vitro toxicity assays against the cyanobacterium (blue-green alga) Synechocystis sp. strain 6803 were conducted using BG-11 medium except that copper micronutrient, normally included as CuSO4.5H2O, was omitted. The medium, termed BG-11 Cu minus, was prepared by dissolving 1.5 g NaNO3, 40 mg K2HPO4, 6 mg citric acid, 1 mg Na2EDTA and 20 mg Na2CO3 in 1 liter of milli Q water and treating the solution with 0.5 g Chelex 100 resin (Bio-Rad Analytical grade, 50-100 mesh, sodium form, cat#142-2822) by stifling at room temperature for 1 h. 900 mL were decanted and 67.5 mg MgSO4.7H2O, 32.4 mg […], 5.4 mg ferric ammonium citrate and 0.9 mL trace metal mix A5 without copper (2.86 g H3BO3, 1.81 g MnCl2.4H2O, 222 mg ZnSO4.7H2O, 390 mg Na2MoO4.2H2O and Co(NO3)2.6H2O in 1 L Milli Q water) was added. The pH was adjusted to 7.1 and the medium was filter-sterilized. Medium containing copper (BG-11 Cu plus) was prepared by adding CuCl2.2H2O to the BG-11 Cu minus medium at 0.2 μM. Test compounds were dissolved in dimethylsulfoxide (DMSO) at 2 mg/mL then appropriate dilutions in BG-11 Cu minus and BG-11 Cu plus media were prepared in sterilized microcentrifuge tubes. 100 μL aliquots were dispensed into flat-bottomed 96-well microtiter plates. Synechocystis was maintained under 24 h of light on BG-11 agar plates at 27° C. A loopful of cells was added to 50 mL of BG-11 Cu minus growth medium and the culture was incubated with shaking at 200 rpm at 27° C. for 24 h. The culture (10 to 20 mL aliquot) was centrifuged in a bench centrifuge at 2400 rpm for 2 min. The resulting cell pellet was resuspended in 5 mL sterile milli Q water (which had been treated with Chelex 100 resin using 0.5 g resin per liter of water by stirring at room temperature for 1 h), and recentrifuged. The cells were resuspended in BG-11 Cu minus medium, and the suspension adjusted to 4×10^5 spores per mL. Microtiter plates containing compounds as described above were inoculated with 100 μL of this cell suspension and the plates incubated at 27° C. for 72 h before assessing algal growth by measuring light scattering in a NepheloStar plate reader. Growth inhibition was determined by comparing growth in the presence of test compound with growth in control wells lacking test compound. Hydrazones and their isolated metal complexes were compared with respect to their in vitro activity toward C. reinhardtii and the cyanobacterium (blue-green alga) Synechocystis sp. strain 6803. Metal complexes of hydrazones were prepared by precipitation from ethanol with various metal salts at 1:1, 2:1 or 3:1 molar ratios, as described in general by Ainscough, Brodie, Dobbs, Ranford, and Waters (Inorganica Chimica Acta 1998, 267, 27-38, which is expressly incorporated by reference herein). In vitro assays against Synechocystis were conducted as described in Example 11 using BG-11 Cu minus medium. Growth inhibition was determined by comparing growth in the presence of test compound with growth in control wells lacking test compound.

melting point: 214 to 217 °C
Structure (SMILES): O=C(N/N=C/c1cc(C(F)(F)F)ccc1O)c1ccccc1 [Compound 68]
inhibition of growth at 0.05 µg/mL [1]: 16%
